In PubChem BioAssay AID2060486 (Molecular Pharmacology Branch, DTP, NCI, 2025):
“And” between values parts separate entries of the source, which are not always exact repeats. Identical values can stand only once.

Test system: IGROV1 complex spheroids (HUVEC, MSC), viability % test/control
Assay: Anticancer human tumor IGROV1 cell line growth inhibition [GQUAD];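 note: spheroids exposed to compounds for 7 days before readout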
Conditions: for viability, T/C: stronger effect = lower value; active = viability on the fitted dose curve at most 10% of control; inactive = the rest
Text: DNA G-quadruplex Stabilizer Agents in Combinations in Complex Spheroids
A high-throughput screen of multi-cell type tumor spheroids was designed to identify active combinations of DNA G-quadruplex stabilizer agents and targeted small molecules. Complex spheroids include a stromal component modeled by human endothelial cells (HUVEC) and fibroblasts modeled by human mesenchymal stem cells (MSCs). The concentration ranges selected for each drug and investigational agent were based upon clinically achievable concentrations if the clinical Cmax of the agent was known.
Compounds. The drugs and investigational agents: pidnarulex (CX-5461; NSC782164), APTO-253 (NSC789042), BRACO-19 (NSC847499), peposertib (NSC802822), ceralasertib (NSC780249), elimusertib (NSC800525), camonsertib (NSC841442), AZD-1390 (NSC803789), olaparib (NSC753686), talazoparib (NSC767125), ART-558 (NSC835418), sotorasib (NSC818433), MRTX-1133 (NSC836407), SN-38 (NSC673596), topotecan (NSC609699), etoposide (NSC141540), doxorubicin (NSC123127), gemcitabine (NSC613327), 5-fluorouracil (NSC19893), paclitaxel (NSC125973), vemurafenib (NSC761431), panobinostat (NSC761190), R-306465 (JNJ-16241199; NSC773264), adavosertib (NSC754352), TP-3654 (NSC805149), carboplatin (NSC241240), KSQ-4279 (NSC840948), and staurosporine (NSC755774) were obtained from the National Cancer Institute (NCI) Developmental Therapeutics Program Chemical Repository (34). The FDA-approved anticancer drug set is available from the NCI Developmental Therapeutics Program. […] The stock solutions were prepared in dimethyl sulfoxide (DMSO, Sigma-Aldrich, St. Louis, MO, cat. D2650) at 800-fold the tested concentration and stored at -70 degrees C prior to their use. All drugs and investigational agents were tested over a range starting from a high concentration at or near the clinical Cmax and decreasing in half-log increments. If the clinical Cmax for an agent had not been determined, the highest concentration tested was 10 microM.
2.3 Cell Culture. All cells were maintained in an incubator at 37 degrees C and 5% CO2 with 95% humidity. The PDC lines were cultured according to standard operating procedures established by the NCI PDMR. All PDCs were thawed and cultured in Matrigel-coated flasks prepared with a working solution of 1X Ham's F-12 nutrient mix, without supplementation (Invitrogen, cat. 11765054), 100 U/mL penicillin-streptomycin (Invitrogen, cat. 15140122), and 2.5% Matrigel (Corning Inc., cat. 354248) for the first three passages. The 857933-349-R-J2-PDC line was cultured in 6C/Colon 1B media, which includes advanced DMEM/F-12 (Thermo Fisher Scientific, cat. 12634028), 10 mM HEPES (Thermo Fisher Scientific, cat. 15630080), 1X GlutaMAX supplement (Thermo Fisher Scientific, cat. 35050061), 0.1 mg/mL primocin (InvivoGen, cat. ant-pm-2), 10% defined fetal bovine serum, heat inactivated (HyClone Laboratories Inc., cat. SH30070.03HI), 50% L-WRN conditioned media (ATCC, cat. CRL-3276), 1.25 mM N-Acetyl-L-cysteine (Sigma-Aldrich, cat. A9165), 10 mM nicotinamide (Sigma-Aldrich, cat. N0636), 1X B-27 supplement (Thermo Fisher Scientific, cat. 17504044), 1X N-2 supplement (Thermo Fisher Scientific, cat. 17502048), 10 microM Y-27632 dihydrochloride (Tocris Bioscience, cat. 1254), and 50 ng/mL human EGF recombinant protein (Thermo Fisher Scientific, cat. PHG0311). The 485176-168-R4-J1-PDC line was cultured in Panc media, which includes all 6C/Colon 1B media components plus 100 ng/mL human FGF-10 (Thermo Fisher Scientific, cat. 100-26), 500 nM SB-431542 (Selleckchem, cat. S1067), and gastrin (Tocris, cat. 3006).
[…]

[1] = curve of first compound, second compound 0.0316 µM
[2] = curve of first compound, second compound 0.1 µM
[3] = curve of first compound, second compound 0.316 µM
[4] = curve of first compound, second compound 1 µM
[5] = curve of first compound, second compound 3.16 µM
[6] = curve of first compound, second compound 10 µM
[7] = second compound 0.0316 µM, first compound 0.0316 µM
[8] = second compound 0.0316 µM, first compound 0.1 µM
[9] = second compound 0.0316 µM, first compound 0.316 µM
[10] = second compound 0.0316 µM, first compound 1 µM
[11] = second compound 0.0316 µM, first compound 3.16 µM
[12] = second compound 0.0316 µM, first compound 10 µM
[13] = second compound 0.1 µM, first compound 0.0316 µM
[14] = second compound 0.1 µM, first compound 0.1 µM
[15] = second compound 0.1 µM, first compound 0.316 µM
[16] = second compound 0.1 µM, first compound 1 µM
[17] = second compound 0.1 µM, first compound 3.16 µM
[18] = second compound 0.1 µM, first compound 10 µM
[19] = second compound 0.316 µM, first compound 0.0316 µM
[20] = second compound 0.316 µM, first compound 0.1 µM
[21] = second compound 0.316 µM, first compound 0.316 µM
[22] = second compound 0.316 µM, first compound 1 µM
[23] = second compound 0.316 µM, first compound 3.16 µM
[24] = second compound 0.316 µM, first compound 10 µM
[25] = second compound 1 µM, first compound 0.0316 µM
[26] = second compound 1 µM, first compound 0.1 µM
[27] = second compound 1 µM, first compound 0.316 µM
[28] = second compound 1 µM, first compound 1 µM
[29] = second compound 1 µM, first compound 3.16 µM
[30] = second compound 1 µM, first compound 10 µM
[31] = second compound 3.16 µM, first compound 0.0316 µM
[32] = second compound 3.16 µM, first compound 0.1 µM
[33] = second compound 3.16 µM, first compound 0.316 µM
[34] = second compound 3.16 µM, first compound 1 µM
[35] = second compound 3.16 µM, first compound 3.16 µM
[36] = second compound 3.16 µM, first compound 10 µM
[37] = second compound 10 µM, first compound 0.0316 µM
[38] = second compound 10 µM, first compound 0.1 µM
[39] = second compound 10 µM, first compound 0.316 µM
[40] = second compound 10 µM, first compound 1 µM
[41] = second compound 10 µM, first compound 3.16 µM
[42] = second compound 10 µM, first compound 10 µM
[43] = compound alone, run of 03/18/2024

O=C(c1cc(Cc2n[nH]c(=O)c3ccccc23)ccc1F)N1CCN(C(=O)C2CC2)CC1 + CN(C)c1ccc(Nc2c3ccc(NC(=O)CCN4CCCC4)cc3nc3cc(NC(=O)CCN4CCCC4)ccc23)cc1
2360 nM: IC50 [5]
inactive: viability, T/C [7] 87.2% | viability, T/C [8] 81.6% | viability, T/C [9] 67.3% | viability, T/C [10] 67.9% | viability, T/C [11] 61.6% | viability, T/C [12] 22.1% | viability, T/C [13] 92.9% | viability, T/C [14] 87.2% | viability, T/C [15] 83.9% | viability, T/C [16] 74.8% | viability, T/C [17] 67.6% | viability, T/C [18] 20.3% | viability, T/C [19] 66.1% | viability, T/C [20] 87.3% | viability, T/C [21] 78.4% | viability, T/C [22] 73.3% | viability, T/C [23] 54.3% | viability, T/C [24] 24.4% | viability, T/C [25] 62.2% | viability, T/C [26] 90.4% | viability, T/C [27] 86.9% | viability, T/C [28] 71.7% | viability, T/C [29] 66.1% | viability, T/C [30] 24.6% | viability, T/C [31] 58.3% | viability, T/C [32] 87.8% | viability, T/C [33] 78.6% | viability, T/C [34] 51.9% | viability, T/C [35] 49.9% | viability, T/C [36] 20.7% | viability, T/C [37] 50.9% | viability, T/C [38] 44.6% | viability, T/C [39] 38.4% | viability, T/C [40] 37.6% | viability, T/C [41] 30.1% | viability, T/C [42] 11.8%
3730 nM: IC50 [3]
4880 nM: IC50 [4]
4570 nM: IC50 [2]
< 31.6 nM: IC50 [6]
3870 nM: IC50 [1]

Cc1[nH]c2ccc(F)cc2c1-c1nc2c3cccnc3c3ncccc3c2[nH]1
531 nM [middle of 4 runs]: IC50 (compound alone, run of 03/26/2024)
active: viability, T/C (compound 1 µM) 4.97% [middle of 12 runs] | viability, T/C (compound 3.16 µM) 4.72% [middle of 12 runs] | viability, T/C (compound 10 µM) 4.29% [middle of 12 runs]
inactive: viability, T/C (compound 0.1 µM) 101% [middle of 12 runs]
561 nM [middle of 8 runs]: IC50 [43]

Cc1cnc(CNC(=O)c2c(=O)c3ccc(N4CCCN(C)CC4)nc3n3c2sc2ccccc23)cn1
11.3% [middle of 12 runs]: viability, T/C (compound 10 µM)
68.4 nM [middle of 11 runs]: IC50 [43]
inactive: viability, T/C (compound 0.0316 µM) 71.2% [middle of 12 runs] | viability, T/C (compound 0.1 µM) 40.9% [middle of 12 runs] | viability, T/C (compound 0.316 µM) 27% [middle of 12 runs] | viability, T/C (compound 1 µM) 16.7% [middle of 12 runs]
11.6% [middle of 12 runs]: viability, T/C (compound 3.16 µM)

COc1cc(C2c3cc4c(cc3C(OC3OC5COC(C)OC5C(O)C3O)C3COC(=O)C23)OCO4)cc(OC)c1O (stereo unspecified) + Cc1[nH]c2ccc(F)cc2c1-c1nc2c3cccnc3c3ncccc3c2[nH]1
75.3 nM: IC50 [3]
< 31.6 nM: IC50 [4] | IC50 [5] | IC50 [6]
99.2 nM: IC50 [1]
active: viability, T/C [11] 10.6% | viability, T/C [12] 5.84% | viability, T/C [17] 9.69% | viability, T/C [18] 6.24% | viability, T/C [23] 7.51% | viability, T/C [24] 4.85% | viability, T/C [25] 4.67% | viability, T/C [26] 4.98% | viability, T/C [27] 4.59% | viability, T/C [28] 5.09% | viability, T/C [29] 4.85% | viability, T/C [30] 3.15% | viability, T/C [31] 4.03% | viability, T/C [32] 5.21% | viability, T/C [33] 3.82% | viability, T/C [34] 5.26% | viability, T/C [35] 4.55% | viability, T/C [36] 3.18% | viability, T/C [37] 4.92% | viability, T/C [38] 4.45% | viability, T/C [39] 4.88% | viability, T/C [40] 4.78% | viability, T/C [41] 4.32% | viability, T/C [42] 4.34%
inactive: viability, T/C [7] 87.7% | viability, T/C [8] 49.2% | viability, T/C [9] 26.8% | viability, T/C [10] 9.94% | viability, T/C [13] 89.3% | viability, T/C [14] 52.3% | viability, T/C [15] 25.4% | viability, T/C [16] 12% | viability, T/C [19] 68.3% | viability, T/C [20] 44% | viability, T/C [21] 23.7% | viability, T/C [22] 11.6%
110 nM: IC50 [2]

CC(C)n1c(=O)n(C)c2cnc3cc(F)c(-c4ccc(OCCCN5CCCCC5)nc4)cc3c21
2820 nM and 4020 nM and 4200 nM: IC50 (curve of compound)
inactive: viability, T/C (compound 0.0316 µM) 91.1% and 96.5% and 97% | viability, T/C (compound 0.1 µM) 87.8% and 82.1% and 91.4% | viability, T/C (compound 0.316 µM) 91.3% and 101% and 92.9% | viability, T/C (compound 1 µM) 68.5% and 77.6% and 81.7% | viability, T/C (compound 3.16 µM) 49.1% and 59.8% and 61.3% | viability, T/C (compound 10 µM) 16.9% and 16.3% and 16.1%

COc1cccc2c1C(=O)c1c(O)c3c(c(O)c1C2=O)CC(O)(C(=O)CO)CC3OC1CC(N)C(O)C(C)O1 (stereo unspecified)
inactive: viability, T/C (compound 0.0316 µM) 67.5% and 64.3% and 55.3% | viability, T/C (compound 0.1 µM) 16.6% and 19.5% and 22.7%
47.2 nM and 45.8 nM and 37.9 nM: IC50 (curve of compound)
active: viability, T/C (compound 0.316 µM) 8.67% and 8.83% and 8.72% | viability, T/C (compound 1 µM) 3.86% and 4.47% and 4.45% | viability, T/C (compound 3.16 µM) 0.12% and 0.15% and 0.11% | viability, T/C (compound 10 µM) 0.59% and 1.33% and 0.9%
